Results as given in patent publication US9012395B2, “Treatment of extracellular matrix to reduce inflammation” (The Cleveland Clinic Foundation, priority 2011, dated 2015).

Assay: Solubility of HA

Concentration of HA solutions that can be prepared: ≥ 20000 µg/mL
Substance: hyaluronan [HA]
